The values that follow come from article PMC12040169 (PLOS Biology, 2025).

For orientation: viability means a read-out of living cells in per cent, often relative to untreated cells.

The nature of this data set: in vitro. The conditions noted are these: human, hela cells, % viability.

For the compound `CC(C)[C@@H](Cn1nnc2ccccc21)NC(=O)c1ccco1` [CBK282335], the viability at 28.5 h, 10 µM was found to be 108%.

Regarding `CC(C)(CO)CNc1nc(-c2ccc3c(c2)OCO3)cnc1N` [CBK063459], the viability at 28.5 h, 10 µM is 105%.

As for `FC(F)(F)Oc1ccc(-n2cc(-c3ccsc3)nn2)cc1` [CBK113096], the viability at 28.5 h, 10 µM came out at 92.7%.

`CCn1ncc2c1CCCC2NC1CCN(CC(F)(F)F)C1=O` (stereo not shown) [CBK305206]: the viability at 28.5 h, 10 µM came out at 89.5%.

In the case of `c1ccc(-c2nc(-c3ccncc3)[nH]c2-c2ccccc2)cc1` [CBK291155], the viability at 28.5 h, 10 µM came to 85.3%.

`O=C(NCc1nnc(-c2cccs2)o1)c1cccc(F)c1F` [CBK284634]: the viability at 28.5 h, 10 µM turned out to be 91.1%.

For the compound `O=C(O)c1ccccc1S(=O)(=O)CC(=O)N1CCCCC1` [CBK287180], the viability at 28.5 h, 10 µM stood at 89.1%.

On to `COc1ccccc1C(C)CN(C)C` (stereo not shown) [CBK011948C], for which the viability at 28.5 h, 10 µM turned out to be 91.2%.

For the compound `COC(=O)c1c(NC(=O)CC2Nc3ccccc3NC2=O)sc2c1CCC(C(C)(C)C)C2` (stereo not shown) [CBK265614], the viability at 28.5 h, 10 µM was determined as 98.1%.

With `Fc1ccc2c3c([nH]c2c1)C1(CCN(CCCOCc2ccccc2)CC1)NCC3` [CBK039858], the viability at 28.5 h, 10 µM turned out to be 92.7%.

Consider `O=C(c1ccc2[nH]c(=O)[nH]c2c1)N1CCC(Cn2cncn2)(C2CCCCC2)CC1` [CBK136824], for which the viability at 28.5 h, 10 µM is 104%.

For the compound `COc1cc(F)ccc1-c1ccc(N)c2ccccc12` [CBK084319], the viability at 28.5 h, 10 µM amounted to 103%.

With `Cc1nc2c(c(C)c1CC(=O)NCc1cccc(C#N)c1)c(=O)[nH]n2C` [CBK304959], the viability at 28.5 h, 10 µM came to 92.4%.

As for `CN(C)C(=O)c1cn2cc(-c3cccs3)n(CC3CC3)c(=O)c2n1` [CBK307440], the viability at 28.5 h, 10 µM came to 91.4%.

Turning to `Cc1ccc(COc2ccc(/C=N/NC(=O)CN3CCCCC3)cc2)cc1` [CBK262227], the viability at 28.5 h, 10 µM worked out at 103%.

Regarding `O=C(Nc1ccccc1)[C@H]1CN2CCC1C[C@@H]2Cn1cc(C2(O)CCCC2)nn1` (stereo partly shown) [CBK289091], the viability at 28.5 h, 10 µM was 103%.

Regarding `COc1ccc(CN2C(=O)CC3(C2=O)C(=O)N(Cc2ccccc2)c2ccc(F)cc23)cc1OC` (stereo not shown) [CBK075174], the viability at 28.5 h, 10 µM turned out to be 108%.

Consider `CC1CCN(C(=O)[C@@H]2CN(C)C[C@]23CCc2ccccc2C3=O)CC1` [CBK284589], for which the viability at 28.5 h, 10 µM is 100%.

Turning to `CC(C)c1ccc(S(=O)(=O)NC(C#N)c2ccccc2)cc1` (stereo not shown) [CBK044403], the viability at 28.5 h, 10 µM was 101%.

Take `Cc1nccn1CCC(=O)N1CCc2[nH]c3ccccc3c2C1` [CBK281882]: the viability at 28.5 h, 10 µM came out at 111%.

With `Cc1ccc(NC(=O)NCCC2=CCCCC2)cc1Cl` [CBK044135], the viability at 28.5 h, 10 µM turned out to be 110%.

Regarding `Nc1cccc(-c2nccnc2N2CCCC2CO)c1` (stereo not shown) [CBK036786], the viability at 28.5 h, 10 µM was 102%.

For `CCOc1cc(-c2noc(CCC(=O)N3CCN(C)CC3)n2)ccc1OC` [CBK269513], the viability at 28.5 h, 10 µM was found to be 105%.

`Cc1cccc(-c2ncc(NC(=O)COc3ccc4ccccc4c3)nc2-c2ccc(N(C)C)cc2)c1` [CBK037575]: the viability at 28.5 h, 10 µM was found to be 111%.

As to `c1cc(-c2ccc3c(c2)COC2(CCNCC2)O3)c2cc[nH]c2c1` [CBK093812], where the note is “bulk resorufin, single well”, the viability at 28.5 h, 10 µM was 108%.

Take `CCOC(=O)C1(C2CCCCC2)CCN(C(=O)Cc2ccc(Cl)c(Cl)c2)CC1` [CBK136922]: the viability at 28.5 h, 10 µM came out at 95.2%.

Consider `COc1cc(C(=O)N2CCC3(CC2)CC(=O)c2ccc(C)cc2O3)cc(-c2ccc(OC)c(OC)c2)c1` [CBK168282], for which the viability at 28.5 h, 10 µM turned out to be 89.5%.

Take `Cc1ccc(C(=O)CN2CCCC3(C2)NCCc2c3[nH]c3c(C)cccc23)cc1` (stereo not shown) [CBK039546]: the viability at 28.5 h, 10 µM amounted to 96%.

In the case of `O=C(COc1ccc(S(=O)(=O)NC2CCCCC2)cc1)N1CCN(c2cccc(Cl)c2)CC1` [CBK265948], the viability at 28.5 h, 10 µM stood at 90.6%.

In the case of `O=C(CN1C(=O)C2C3C=CC(C3)C2C1=O)OCC(=O)c1ccccc1` (stereo not shown) [CBK265112], the viability at 28.5 h, 10 µM stood at 100%.

With `Cc1noc(C)c1S(=O)(=O)Nc1nc(-c2cccnc2)cs1` [CBK067266], the viability at 28.5 h, 10 µM worked out at 91.5%.

For the compound `O=C1c2ccccc2CN1c1ccccc1` [CBK113189], the viability at 28.5 h, 10 µM was 95.9%.

With `Cc1ccc(-c2nnc(N3CCN(S(=O)(=O)c4ccc(Cl)cc4)CC3)c3ccccc23)cc1` [CBK266759], the viability at 28.5 h, 10 µM is 96.1%.

Consider `Clc1ccc(-c2cc(CN3CCCCC3)no2)cc1Cl` [CBK018435], for which the viability at 28.5 h, 10 µM was found to be 102%.

For the compound `Cc1n[nH]cc1C(=O)NC[C@H]1CC[C@H](c2cc(C(=O)NC(C)C)c3ccccc3n2)CC1` [CBK285862], the viability at 28.5 h, 10 µM stood at 96.3%.

Turning to `COC(=O)CN1C(=O)S/C(=C/c2cc(C)n(-c3ccc(S(N)(=O)=O)cc3)c2C)C1=O` [CBK265249], the viability at 28.5 h, 10 µM stood at 95.9%.

As for `Nc1ncnc2sc3c(c12)CCC3` [CBK097952], the viability at 28.5 h, 10 µM is 89.7%.

Turning to `Cc1sc(NC(=O)c2ccc(F)cc2Cl)c(C(=O)NCc2cccnc2)c1C` [CBK270319], the viability at 28.5 h, 10 µM is 82.9%.

Take `O=C(c1ccc(N2CCSCC2)nc1)N1CCC(N2CCOCC2)CC1` [CBK306582]: the viability at 28.5 h, 10 µM stood at 78.6%.

Consider `O=C(CC1CCCC1)NCCn1nc(-c2cccs2)oc1=O` [CBK282386], for which the viability at 28.5 h, 10 µM is 87.2%.

Turning to `Cn1cc(C(=O)CCC(=O)NC2CCCN(c3ncccn3)C2)cn1` (stereo not shown) [CBK305480], the viability at 28.5 h, 10 µM was determined as 94.1%.

On to `CCOC(=O)N1CCC(NCC(C)(C)CN(C)C)CC1` [CBK028516], for which the viability at 28.5 h, 10 µM came to 96.2%.

Consider `CN1C[C@@H](NC(=O)c2ccc3c(c2)OCO3)C[C@H]1c1nc(-c2ccccc2)no1` [CBK288876], for which the viability at 28.5 h, 10 µM was 108%.

Regarding `COc1cccc2c1cc(C(=O)NCCCC1CCOC1)n2C` (stereo not shown) [CBK283284], the viability at 28.5 h, 10 µM is 93.4%.

As for `Cc1nc(COc2ccc(Cl)cc2)sc1C(=O)N1CCC1` [CBK306353], the viability at 28.5 h, 10 µM came out at 88.5%.

For the compound `Cc1ccc(S(=O)(=O)N[C@H]2CO[C@H]3[C@@H]2OC[C@H]3O)cc1` [CBK289477], the viability at 28.5 h, 10 µM came out at 98.4%.

As to `CC(=O)N1CCC2(CC1)NC(=O)N(c1ccc(C(=O)O)cc1)N2` [CBK286758], the viability at 28.5 h, 10 µM was 103%.

On to `CS(=O)(=O)N[C@H]1C[C@H]2C(=O)Nc3ccc(-c4ccc(F)cc4F)cc3C(=O)N2C1` [CBK289368], for which the viability at 28.5 h, 10 µM came out at 85.3%.

In the case of `O=C(C1=C(O)C(=O)N(CCCN2CCOCC2)C1c1ccccn1)c1ccc(Cl)cc1` (stereo not shown) [CBK266445], the viability at 28.5 h, 10 µM was determined as 112%.

Turning to `CSCCC(C(=O)O)N1CNC(=S)NC1` (stereo not shown) [CBK011382], the viability at 28.5 h, 10 µM stood at 92.3%.

On to `OC[C@H]1O[C@@H](n2cnc3c(Cl)nccc32)C[C@H]1O` [CBK201273], for which the viability at 28.5 h, 10 µM came out at 88.5%.

As for `O=C(Nc1ccc2nc3n(c(=O)c2c1)CCCC3)C1CCCCC1` [CBK304383], the viability at 28.5 h, 10 µM turned out to be 91.9%.

As to `O=C(CCCOc1ccccc1)Nc1cccnc1N1CCNCC1` [CBK028258T], the viability at 28.5 h, 10 µM was found to be 97.3%.

For `S=C(Nc1nc2c(s1)CCCC2)NC1CC1` [CBK288425], the viability at 28.5 h, 10 µM was 90.1%.

In the case of `CC(=O)Nc1ccc(OC(=O)N2CCCCC2)cc1` [CBK090124], the viability at 28.5 h, 10 µM (bulk resorufin, single well) is 99.1%.

Take `COc1cc(CNc2ccc(N3CCOCC3)c(Cl)c2)ccc1OCc1ccccc1F` [CBK074392]: the viability at 28.5 h, 10 µM worked out at 93.6%.

`COc1ccc(N2Cc3ccccc3C2=O)cc1OC` [CBK113666]: the viability at 28.5 h, 10 µM was 95.5%.

In the case of `O=C(O)c1[nH]n(-c2ccc(Cl)cc2)c(=O)c1CCO` [CBK287079], the viability at 28.5 h, 10 µM was found to be 101%.

For `Cn1cc(NC(=O)N2CCCN(Cc3ccccn3)CC2)nn1` [CBK307034], the viability at 28.5 h, 10 µM is 86.8%.

Turning to `Clc1ncccc1OCCOc1ccccc1` [CBK003888], the viability at 28.5 h, 10 µM came out at 87.2%.

For the compound `OC(CN1CCOCC1)Cn1c(-c2ccccc2)c(-c2ccccc2)c2ccc3ccccc3c21` (stereo not shown) [CBK263996G], the viability at 28.5 h, 10 µM was 94.7%.

In the case of `CCc1ccc(OCC(=O)O/N=C(\N)c2ccncc2)c(Br)c1` [CBK265994], the viability at 28.5 h, 10 µM was 86.6%.

With `COc1ccc(C(=O)/C=C/c2ccc(N3N=C(c4ccccc4)CC3c3ccccc3)cc2)cc1` (stereo not shown) [CBK262274], the viability at 28.5 h, 10 µM turned out to be 91.7%.

Consider `O=C(Nc1nnc(-c2cccs2)o1)c1ccc(Cl)cc1` [CBK287600], for which the viability at 28.5 h, 10 µM came to 96.4%.

As for `Cc1cc(-c2ccc(=O)n(CCNC(=O)C3CCCCC3)n2)c(C)o1` [CBK284522], the viability at 28.5 h, 10 µM stood at 95.7%.

In the case of `Cc1[nH]c2ccccc2c1/C=N/c1cccc2c(/N=C/c3c(C)[nH]c4ccccc34)cccc12` [CBK261227], the viability at 28.5 h, 10 µM was determined as 97.6%.

As to `Cc1ccc(N(Cc2ccc(C(=O)N(C)Cc3ccccc3)cc2)S(C)(=O)=O)cc1C` [CBK263795], the viability at 28.5 h, 10 µM was 81.5%.

As to `COc1cc2c(cc1NC(=O)CN(C)S(=O)(=O)c1ccc(Cl)cc1)oc1ccccc12` [CBK267404], the viability at 28.5 h, 10 µM stood at 93.6%.

`Cc1cccc(-c2ccc(CC3(C(N)=O)CCN(C(=O)c4ccccc4)CC3)cc2)c1` [CBK285778]: the viability at 28.5 h, 10 µM was 93.9%.

`Cc1ccc2nc3c(cc2c1)CN(Cc1ccco1)C(=O)CO3` [CBK283594]: the viability at 28.5 h, 10 µM stood at 103%.

For `O=C(Nc1ccccc1Cl)c1ccc(NCCN2C(=O)c3ccccc3C2=O)c([N+](=O)[O-])c1` [CBK267149], the viability at 28.5 h, 10 µM is 95.8%.

As for `O=C(O)/C(=N\c1cccc2ccccc12)c1ccccc1` [CBK262224], the viability at 28.5 h, 10 µM was determined as 75.7%.

For the compound `c1cncc(COc2cncc(OC3CCN(Cc4ccc5c(c4)OCO5)C3)n2)c1` (stereo not shown) [CBK084458], the viability at 28.5 h, 10 µM was 88.9%.

`COc1ccc(Sc2nccnc2NC(C)C)cc1OC` [CBK115249]: the viability at 28.5 h, 10 µM amounted to 87.4%.

As for `CC(=O)c1cc(C(=O)NC(c2ccccc2)c2cccnc2)cs1` (stereo not shown) [CBK282514], the viability at 28.5 h, 10 µM was 125%.

In the case of `CCCC(SCC)C(N)=O` (stereo not shown) [CBK020895], the viability at 28.5 h, 10 µM is 99.1%.

In the case of `Cc1ccc(C(C)C)c(OCC(=O)Nc2cc(-c3nc4ccccc4[nH]3)ccc2C)c1` [CBK268724], the viability at 28.5 h, 10 µM was 80.7%.

As for `O=C(NCCc1c[nH]c2ccccc12)c1cc(Br)cnc1N1CCOCC1` [CBK076224], the viability at 28.5 h, 10 µM was found to be 91.7%.

With `Cc1ccc(OCc2ccc(Cl)nc2)c(Br)c1` [CBK002842], the viability at 28.5 h, 10 µM was 75.8%.
